Converted amounts (≈) assume the structure as drawn. Read-outs that look alike come from different tables or passages of the source.
Assays:
[1] = tested on: intracellular N. gonorrhoeae; assay: Intracellular killing in HeLa229 cells; assay type: cell-based, Neisseria gonorrhoeae; settings: within 24 h
Experimental: Intracellular killing was assessed within HeLa229 cells (European Collection of Authenticated Cell Cultures, London, UK) that were seeded at ~3 × 10^5 cells/mL and grown to 70–80% confluence in RPMI-glutamine media supplemented with 10% (v/v) heat-inactivated fetal bovine serum (FBS, Gibco, MA, USA). Cells were incubated at 37 °C with 5% CO2 for 24 h, then washed with serum-free RPMI-1640 prior to infection. N. gonorrhoeae was scraped from agar plates and resuspended in Dulbecco’s Phosphate Buffered Saline (DPBS, Sigma-Aldrich), pelleted, then resuspended in RPMI with 2% FBS. Bacterial suspensions were used to infect HeLa229 cells at a multiplicity of infection of 100:1. Plates were briefly centrifuged (500 × g for 5 min), then incubated for one hour. This incubation and all subsequent incubations were performed at 37 °C with 5% CO2. Non-adherent cells were removed by washing with serum-free RPMI, and the remaining extracellular bacteria were killed via resuspension in RPMI-glutamine supplemented with 2% FBS and 200 μg/mL gentamycin and incubation for one hour. […] Azithromycin-treated samples were included for control/comparison. […] Samples were diluted and plated onto chocolate II agar for viable bacteria quantification. Intracellular killing assays were performed at Microbiologics, Kalamazoo, MI, USA, using a method adapted from previous studies[68],[69].

N. gonorrhoeae = assay: MIC determination, agar dilution (CLSI); assay type: cell-based, Neisseria gonorrhoeae; settings: for MIC: Neisseria gonorrhoeae
Description: The 2024 WHO N. gonorrhoeae reference strains were used for quality control. Only whole MIC doubling dilutions are reported. Clinical breakpoints or the epidemiological cutoff (ECOFF, to indicate azithromycin resistance) from EUCAST (v14.0, https://www.eucast.org/clinical_breakpoints) were used to classify isolates as antimicrobial susceptible or resistant. […] Two times the standard inoculum defined by CLSI was used to establish consistent growth in untreated control samples for some strains. In vitro time-kill assays were performed according to CLSI guidelines[65] using Columbia Broth (BD Difco) supplemented with 1% IsoVitaleX Enrichment (BD). Viable bacterial counts were generated by plating 10-fold serially diluted samples on GC agar plates containing 1% IsoVitaleX Enrichment (BD).

CC[C@H]1OC(=O)[C@H](C)[C@@H](O[C@H]2C[C@@](C)(OC)[C@@H](O)[C@H](C)O2)[C@H](C)[C@@H](O[C@@H]2O[C@H](C)C[C@H](N(C)C)[C@H]2O)[C@](C)(O)C[C@@H](C)CN(C)[C@H](C)[C@@H](O)[C@]1(C)O [Azithromycin]
reduction of intracellular bacteria ([1]; ATCC 49226 in HeLa229 cells): ≥ 3.3 log10CFU/mL | reduction of intracellular bacteria ([1]; WHO X in HeLa229 cells): ≥ 2.8 log10CFU/mL

CO/N=C(\C(=O)N[C@@H]1C(=O)N2C(C(=O)O)=C(CSc3nc(=O)c(=O)[nH]n3C)CS[C@H]12)c1csc(N)n1 [Ceftriaxone, reference compound]
susceptibility of all isolates (N. gonorrhoeae; 100 contemporary clinical N. gonorrhoeae isolates, EUCAST): susceptible | MIC (N. gonorrhoeae; ATCC700825, ATCC 700825, mode of multiple measures, read-out: MIC): 0.002 µg/mL (≈ 0.00361 µM) | MIC (N. gonorrhoeae; WHO H, agar dilution, read-out: MIC): 0.25 µg/mL (≈ 0.451 µM) | MIC (N. gonorrhoeae; WHO K, agar dilution, read-out: MIC): 0.06 µg/mL (≈ 0.108 µM) | MIC (N. gonorrhoeae; WHO L, agar dilution, read-out: MIC): 0.25 µg/mL (≈ 0.451 µM) | MIC (N. gonorrhoeae; WHO Q, agar dilution, read-out: MIC): 0.5 µg/mL (≈ 0.902 µM) | MIC (N. gonorrhoeae; WHO R, agar dilution, read-out: MIC): 0.5 µg/mL (≈ 0.902 µM) | MIC (N. gonorrhoeae; WHO S2, agar dilution, read-out: MIC): < 0.008 µg/mL | MIC (N. gonorrhoeae; WHO V, agar dilution, read-out: MIC): 0.06 µg/mL (≈ 0.108 µM) | MIC (N. gonorrhoeae; WHO X-07 (CIP-R, CRO-R), mode of multiple measures, read-out: MIC): 2 µg/mL (≈ 3.61 µM) | MIC (N. gonorrhoeae; WHO Y, agar dilution): 1 µg/mL (≈ 1.8 µM) | AMR phenotype (susceptibility category, EUCAST) (N. gonorrhoeae; WHO F): S | AMR phenotype (susceptibility category, EUCAST) (N. gonorrhoeae; WHO H): R | AMR phenotype (susceptibility category, EUCAST) (N. gonorrhoeae; WHO K): S | AMR phenotype (susceptibility category, EUCAST) (N. gonorrhoeae; WHO L): R | AMR phenotype (susceptibility category, EUCAST) (N. gonorrhoeae; WHO M): S | AMR phenotype (susceptibility category, EUCAST) (N. gonorrhoeae; WHO O): S | AMR phenotype (susceptibility category, EUCAST) (N. gonorrhoeae; WHO P): S | AMR phenotype (susceptibility category, EUCAST) (N. gonorrhoeae; WHO Q): R | AMR phenotype (susceptibility category, EUCAST) (N. gonorrhoeae; WHO R): R | AMR phenotype (susceptibility category, EUCAST) (N. gonorrhoeae; WHO S2): S | AMR phenotype (susceptibility category, EUCAST) (N. gonorrhoeae; WHO U): S | AMR phenotype (susceptibility category, EUCAST) (N. gonorrhoeae; WHO V): S | AMR phenotype (susceptibility category, EUCAST) (N. gonorrhoeae; WHO X): R | AMR phenotype (susceptibility category, EUCAST) (N. gonorrhoeae; WHO Y): R | AMR phenotype (susceptibility category, EUCAST) (N. gonorrhoeae; WHO Z): R

Reference: article PMC12446476 (Nature Communications, 2025)
